# Assay results taken from the NIST ThermoML archive (doi:10.1021/acs.jced.9b00704).
# ± gives the expanded uncertainty stated by the source.
# Settings: Liquid, Light diffraction method
smiles,measurement,setting,value
CCCCCC(=O)OC [methyl hexanoate],speed of sound,"297.83 K, 110 kPa",1225.1 ± 20 m/s
same,speed of sound,"298.17 K, 10000 kPa",1274.4 ± 20 m/s
same,speed of sound,"298.35 K, 7010 kPa",1261.9 ± 20 m/s
same,speed of sound,"298.56 K, 5000 kPa",1252.4 ± 20 m/s
same,speed of sound,"298.76 K, 1010 kPa",1231.7 ± 20 m/s
same,speed of sound,"298.85 K, 3000 kPa",1240.3 ± 20 m/s
same,speed of sound,"306.48 K, 110 kPa",1182.9 ± 19 m/s
same,speed of sound,"308.58 K, 10010 kPa",1227.8 ± 20 m/s
same,speed of sound,"308.59 K, 1010 kPa",1186.9 ± 19 m/s
same,speed of sound,"308.9 K, 7000 kPa",1221.1 ± 20 m/s
same,speed of sound,"309.13 K, 5010 kPa",1210.5 ± 19 m/s
same,speed of sound,"309.19 K, 3010 kPa",1197.6 ± 19 m/s
same,speed of sound,"317.52 K, 10010 kPa",1181 ± 19 m/s
same,speed of sound,"317.6 K, 7010 kPa",1175.8 ± 19 m/s
same,speed of sound,"317.92 K, 100 kPa",1137 ± 18 m/s
same,speed of sound,"318.3 K, 1000 kPa",1142.6 ± 18 m/s
same,speed of sound,"318.41 K, 5010 kPa",1160.9 ± 19 m/s
same,speed of sound,"319.17 K, 3010 kPa",1152.2 ± 18 m/s
same,speed of sound,"327.21 K, 110 kPa",1090.2 ± 18 m/s
same,speed of sound,"327.38 K, 7010 kPa",1130.2 ± 18 m/s
same,speed of sound,"327.4 K, 10010 kPa",1143.2 ± 18 m/s
same,speed of sound,"327.58 K, 1010 kPa",1097.9 ± 18 m/s
same,speed of sound,"327.64 K, 5010 kPa",1120.6 ± 18 m/s
same,speed of sound,"327.9 K, 3000 kPa",1107.9 ± 18 m/s
same,speed of sound,"336.91 K, 100 kPa",1055.2 ± 17 m/s
same,speed of sound,"337.21 K, 5000 kPa",1091.3 ± 18 m/s
same,speed of sound,"337.21 K, 7010 kPa",1102.7 ± 18 m/s
same,speed of sound,"337.71 K, 10010 kPa",1111.9 ± 18 m/s
same,speed of sound,"337.95 K, 1000 kPa",1065.3 ± 17 m/s
same,speed of sound,"337.97 K, 3000 kPa",1078 ± 17 m/s
same,speed of sound,"346.56 K, 1010 kPa",1029.7 ± 16 m/s
same,speed of sound,"346.9 K, 100 kPa",1021.1 ± 16 m/s
same,speed of sound,"346.92 K, 10020 kPa",1081.3 ± 17 m/s
same,speed of sound,"347.43 K, 7000 kPa",1067.3 ± 17 m/s
same,speed of sound,"347.71 K, 3010 kPa",1040.3 ± 17 m/s
same,speed of sound,"347.75 K, 5010 kPa",1054.8 ± 17 m/s
same,speed of sound,"356.24 K, 3010 kPa",1011.9 ± 16 m/s
same,speed of sound,"356.68 K, 10010 kPa",1048.7 ± 17 m/s
same,speed of sound,"357.28 K, 100 kPa",970.4 ± 16 m/s
same,speed of sound,"357.33 K, 7010 kPa",1033.1 ± 17 m/s
same,speed of sound,"357.35 K, 5000 kPa",1022.1 ± 16 m/s
same,speed of sound,"357.85 K, 1010 kPa",989.8 ± 16 m/s
same,speed of sound,"366.38 K, 3010 kPa",970.6 ± 16 m/s
same,speed of sound,"366.68 K, 5000 kPa",980.4 ± 16 m/s
same,speed of sound,"366.89 K, 10000 kPa",1005.5 ± 16 m/s
same,speed of sound,"367.18 K, 7000 kPa",989.6 ± 16 m/s
same,speed of sound,"367.24 K, 1010 kPa",947.2 ± 15 m/s
same,speed of sound,"367.48 K, 100 kPa",938.2 ± 15 m/s
same,speed of sound,"377.25 K, 3000 kPa",927.9 ± 15 m/s
same,speed of sound,"377.7 K, 10000 kPa",974.3 ± 16 m/s
same,speed of sound,"377.72 K, 5000 kPa",939.5 ± 15 m/s
same,speed of sound,"377.88 K, 110 kPa",903.5 ± 14 m/s
same,speed of sound,"377.91 K, 1010 kPa",910.8 ± 15 m/s
same,speed of sound,"377.97 K, 7000 kPa",961 ± 15 m/s
same,speed of sound,"386.63 K, 3000 kPa",894.6 ± 14 m/s
same,speed of sound,"386.85 K, 10000 kPa",945.8 ± 15 m/s
same,speed of sound,"387.01 K, 1010 kPa",874.2 ± 14 m/s
same,speed of sound,"387.07 K, 7000 kPa",922 ± 15 m/s
same,speed of sound,"387.29 K, 5000 kPa",908.4 ± 15 m/s
same,speed of sound,"387.73 K, 100 kPa",866.5 ± 14 m/s
same,speed of sound,"396.7 K, 3000 kPa",862 ± 14 m/s
same,speed of sound,"397.25 K, 10010 kPa",909.9 ± 15 m/s
same,speed of sound,"397.54 K, 7020 kPa",891.4 ± 14 m/s
same,speed of sound,"397.64 K, 1010 kPa",842.1 ± 14 m/s
same,speed of sound,"397.83 K, 5000 kPa",875.5 ± 14 m/s
same,speed of sound,"398.6 K, 90 kPa",827.8 ± 13 m/s
same,speed of sound,"406.65 K, 1010 kPa",810.8 ± 13 m/s
same,speed of sound,"406.78 K, 3010 kPa",828.8 ± 13 m/s
same,speed of sound,"406.79 K, 7020 kPa",857.7 ± 14 m/s
same,speed of sound,"406.89 K, 10000 kPa",885.7 ± 14 m/s
same,speed of sound,"406.99 K, 5010 kPa",841.7 ± 14 m/s
same,speed of sound,"407.93 K, 100 kPa",799 ± 13 m/s
same,speed of sound,"416.99 K, 7010 kPa",835.1 ± 13 m/s
same,speed of sound,"417.08 K, 1010 kPa",775.9 ± 12 m/s
same,speed of sound,"417.12 K, 3000 kPa",796.9 ± 13 m/s
same,speed of sound,"417.21 K, 5010 kPa",808.2 ± 13 m/s
same,speed of sound,"417.21 K, 10020 kPa",864.4 ± 14 m/s
same,speed of sound,"417.52 K, 110 kPa",764.3 ± 12 m/s
same,speed of sound,"427.06 K, 1000 kPa",746 ± 12 m/s
same,speed of sound,"427.25 K, 3000 kPa",770.6 ± 12 m/s
same,speed of sound,"427.25 K, 5000 kPa",786.5 ± 13 m/s
same,speed of sound,"427.33 K, 7000 kPa",805.5 ± 13 m/s
same,speed of sound,"427.38 K, 10010 kPa",833.5 ± 13 m/s
same,speed of sound,"436.99 K, 1010 kPa",714.9 ± 13 m/s
same,speed of sound,"437.07 K, 5000 kPa",751.6 ± 12 m/s
same,speed of sound,"437.97 K, 6990 kPa",771.5 ± 12 m/s
same,speed of sound,"438.1 K, 9980 kPa",802.1 ± 13 m/s
same,speed of sound,"439.3 K, 3000 kPa",727.5 ± 13 m/s
same,speed of sound,"446.68 K, 3010 kPa",706.2 ± 13 m/s
same,speed of sound,"447 K, 4990 kPa",723 ± 13 m/s
same,speed of sound,"447.21 K, 10010 kPa",776 ± 12 m/s
same,speed of sound,"447.38 K, 7000 kPa",744.5 ± 12 m/s
same,speed of sound,"447.88 K, 1000 kPa",672.6 ± 12 m/s
same,speed of sound,"456.61 K, 3000 kPa",673.8 ± 12 m/s
same,speed of sound,"456.81 K, 9990 kPa",747 ± 12 m/s
same,speed of sound,"456.84 K, 5000 kPa",695.3 ± 13 m/s
same,speed of sound,"457.1 K, 7010 kPa",715.1 ± 13 m/s
same,speed of sound,"457.84 K, 990 kPa",642.8 ± 12 m/s
same,speed of sound,"466.22 K, 3010 kPa",642.9 ± 12 m/s
same,speed of sound,"466.28 K, 5000 kPa",663.1 ± 12 m/s
same,speed of sound,"466.3 K, 7000 kPa",689.7 ± 12 m/s
same,speed of sound,"466.3 K, 10010 kPa",720.4 ± 13 m/s
same,speed of sound,"466.46 K, 1010 kPa",613.5 ± 11 m/s
same,speed of sound,"478.01 K, 1010 kPa",570.1 ± 10 m/s
same,speed of sound,"478.28 K, 7000 kPa",646.3 ± 12 m/s
same,speed of sound,"478.28 K, 10000 kPa",677.8 ± 12 m/s
same,speed of sound,"478.34 K, 5010 kPa",623.4 ± 11 m/s
same,speed of sound,"478.43 K, 3010 kPa",596.3 ± 11 m/s
same,speed of sound,"487.58 K, 1000 kPa",535.4 ± 11 m/s
same,speed of sound,"487.67 K, 3010 kPa",565.4 ± 10 m/s
same,speed of sound,"487.67 K, 5000 kPa",595 ± 11 m/s
same,speed of sound,"487.69 K, 7000 kPa",617 ± 11 m/s
same,speed of sound,"487.71 K, 10000 kPa",653.5 ± 12 m/s
same,speed of sound,"497.17 K, 1010 kPa",499.6 ± 10 m/s
same,speed of sound,"497.36 K, 5000 kPa",568.5 ± 10 m/s
same,speed of sound,"497.38 K, 7000 kPa",591.6 ± 11 m/s
same,speed of sound,"497.43 K, 3010 kPa",534.1 ± 11 m/s
same,speed of sound,"497.44 K, 10000 kPa",629.4 ± 11 m/s
same,speed of sound,"506.49 K, 3000 kPa",503.9 ± 10 m/s
same,speed of sound,"506.88 K, 1000 kPa",464.6 ± 9.3 m/s
same,speed of sound,"506.97 K, 7010 kPa",563.3 ± 10 m/s
same,speed of sound,"507.02 K, 10020 kPa",599.2 ± 11 m/s
same,speed of sound,"507.11 K, 5010 kPa",535.1 ± 11 m/s
same,speed of sound,"516.99 K, 1010 kPa",426.2 ± 9.4 m/s
same,speed of sound,"517.52 K, 7010 kPa",531.6 ± 11 m/s
same,speed of sound,"517.56 K, 3000 kPa",468.7 ± 9.4 m/s
same,speed of sound,"517.6 K, 5010 kPa",504.9 ± 10 m/s
same,speed of sound,"517.63 K, 10010 kPa",571 ± 10 m/s
same,speed of sound,"528.29 K, 5000 kPa",472.6 ± 9.5 m/s
same,speed of sound,"528.46 K, 7000 kPa",504 ± 10 m/s
same,speed of sound,"528.65 K, 10010 kPa",547.3 ± 9.9 m/s
same,speed of sound,"529.52 K, 3000 kPa",426 ± 9.4 m/s
same,speed of sound,"538.04 K, 3000 kPa",396.8 ± 8.8 m/s
same,speed of sound,"538.26 K, 5010 kPa",439.9 ± 8.9 m/s
same,speed of sound,"538.26 K, 7000 kPa",472.1 ± 9.5 m/s
same,speed of sound,"538.35 K, 10000 kPa",516.1 ± 10 m/s
same,speed of sound,"547.56 K, 3000 kPa",362.7 ± 8.8 m/s
same,speed of sound,"547.96 K, 5000 kPa",406.1 ± 9 m/s
same,speed of sound,"548.18 K, 9980 kPa",498.8 ± 10 m/s
same,speed of sound,"548.26 K, 7000 kPa",446 ± 9 m/s
same,speed of sound,"557.68 K, 3000 kPa",321.9 ± 7.8 m/s
same,speed of sound,"557.89 K, 7010 kPa",423 ± 9.4 m/s
same,speed of sound,"558.07 K, 10000 kPa",472.6 ± 9.5 m/s
same,speed of sound,"558.34 K, 5000 kPa",378.3 ± 8.4 m/s
same,speed of sound,"565.69 K, 10010 kPa",446.4 ± 9 m/s
same,speed of sound,"566.56 K, 3010 kPa",285.3 ± 7.5 m/s
same,speed of sound,"567.58 K, 5000 kPa",346.5 ± 8.4 m/s
same,speed of sound,"567.72 K, 7010 kPa",390.1 ± 8.6 m/s
same,speed of sound,"575.39 K, 5000 kPa",317.9 ± 8.4 m/s
same,speed of sound,"576.35 K, 7000 kPa",365.2 ± 8.8 m/s
same,speed of sound,"576.45 K, 3010 kPa",241 ± 6.4 m/s
same,speed of sound,"577.04 K, 10010 kPa",420.8 ± 9.3 m/s
same,speed of sound,"586.48 K, 3000 kPa",197.5 ± 5.8 m/s
same,speed of sound,"586.99 K, 5010 kPa",275 ± 7.8 m/s
same,speed of sound,"587.76 K, 7000 kPa",334.6 ± 8.1 m/s
same,speed of sound,"588.07 K, 10030 kPa",393.2 ± 8.7 m/s
